Counter-ions that a name gives are not always drawn.
Tests used:
[1] = biological target: T1, myosin light chain phosphorylation enzyme (MLCK) (Gallus gallus, UniProt P11799); test: Action on myosin light chain phosphorylation enzyme (MLCK) activity; format: biochemical, chicken; settings: for IC50: MLCK from chicken gizzard smooth muscle, ELISA, 100 μM ATP, read-out: Myosin light chain phosphorylation enzyme inhibitory action IC50; for inhibition of MLCK: result in words
T1 construct: purified from chicken gizzard smooth muscle by a conventional method; from tissue; host or cells: chicken gizzard smooth muscle
Description: A myosin light chain phosphorylation enzyme (MLCK) was purified from chicken gizzard smooth muscle by a conventional method (Yoshida, M., et al., J. Biochem., 99, 1027–1036 (1986)). The myosin regulatory light chain as a substrate was purified from the chicken gizzard smooth muscle by a conventional method (Grand, R. J., et al., Biochem. J., 211, 267–272 (1983)). The MLCK activity was measured by ELISA using pLC1 described in Test Example 1 (Sakurada, K., et al., J. Biochem., 115, 18–21 (1994)). The myosin regulatory light chain was diluted in phosphate-buffered saline (PBS, Sigma) to a concentration of 5.0 µg/ml, added to 96-well Immunoplate (Nunc) in a volume of 100 μl per well and left stand overnight at 4° C. Each well was washed with PBS, and 25 mM Tris/HCl buffer containing 100 μM ATP, 3 mM MgCl2, 1 mM CaCl2, 100 ng/ml of calmodulin (Sigma) and 100 ng/ml of MLCK (pH 7.4, Buffer A) was added to each well and incubated at 30° C. for 10 minutes. In a volume of 100 μl each of 20% aqueous phosphoric acid solution was added to each well to terminate the enzymatic reaction. Each well was washed with 25 mM Tris/HCl buffer (TTBS) containing 0.1% Tween 20, and then 100 μl each of pLC1 described in Test Example 1 was added to each well and incubated at room temperature for 90 minutes.
Each well was washed with TTBS, and then 100 μl of the HRP-labeled rabbit anti-mouse IgG antibodies (Bio-Rad) were added to each well and incubated at room temperature for 90 minutes. Each well was washed with TTBS, and then 25 mM citrate buffer (pH 5.0) containing orthophenylenediamine (Sigma) as a substrate of HRP and aqueous hydrogen peroxide (0.03%) was added in a volume of 100 μl per well and incubated at room temperature for 5 minutes. 50 μl of 4 N sulfuric acid was added to each well to terminate the reaction, and then absorbance was measured by using an immunoplate reader (Bio-Rad).

[2] = test system: intraocular pressure; test: Intraocular pressure reducing action (Test Example 4); format: in vivo, Japanese white rabbit; settings: for inhibition in vivo at 1 %, 50 µL: Oryctolagus cuniculus, topical, 1% aqueous solution, 50 μl dropped to the left eye, after 2 hours, read-out: Intraocular pressure reducing action (reduction ratio) (%); for intraocular pressure reducing activity: result in words, rabbit
Description: A Japanese white rabbit having a body weight of about 2 kg was placed in a positioner and naturalized for one week before the experiment. An ophthalmologic local anesthesant (Benoxil) was administered to the left eye, and then intraocular pressure was measured by using a tonometer (Classic 30, Solan). The initial value of the intraocular pressure was measured, then 50 μl of a test compound (1% aqueous solution) was dropped to the left eye, and after 2 hours, the intraocular pressure was measured. The intraocular pressure reducing action of the test compounds is shown in Table 7 mentioned below as ratios (%) of reduction of intraocular pressure based on the initial value of the intraocular pressure.

[3] = test system: thoracic aorta constricted with phenylephrine; test: Vasoconstriction inhibitory action (Test Example 2); parameters: species or system Rats (Wistar); settings: result in words; rat thoracic aorta, phenylephrine
From the text: Rats (Wistar, 11-week old) were bleeded to death and laparotomized to take out the thoracic aorta. That aorta was cut into a ring of a length of about 3 mm in a conventional manner (Asano, T., et al., J. Pharmacol. Exp. Ther., 241, pp. 1033–1040 (1987)) and hung in 10-ml organ bath filled with Krebs-Hensright nutrient solution bubbled with a mixed gas of 95% O2 and 5% CO2. One end of the blood vessel was connected to an isometric transducer (FD Pickup TB-912T, Nihon Kohden) and applied with 2.5 g of resting tension, and constriction and relaxation reactions of the aorta were recorded. The aorta was constricted with phenylephrine (1 μM, Sigma) and then added with a test compound (1 μM), and the vasoconstriction inhibitory action thereof was observed. The vasoconstriction inhibitory actions of the test compounds are shown in Table 6 mentioned below as the relaxation ratios, which are based on the vasoconstriction with phenylephrine immediately before the addition of the test compound taken as 100%.

inhibition of MLCK [1] | SMILES | vasoconstriction inhibitory action [3] | intraocular pressure reducing activity [2] | further results
– | NCCCOc1cccc2c(N)nccc12 [Example 10, 3-[(1-Amino-5-isoquinolyl)oxy]propylamine hydrochloride] | – | – | IC50 [1]: > 30 µM
– | NCCN(CCS(=O)(=O)c1ccccc1)S(=O)(=O)c1cccc2cnccc12 [Example 7, N-[(5-Isoquinolyl)sulfonyl]-N-[2-(phenylsulfonyl)ethyl]ethylenediamine hydrochloride] | – | – | inhibition in vivo at 1 %, 50 µL [2]: 30.1%; IC50 [1]: > 50 µM
did not inhibit MLCK | Cl.Fc1cncc2cccc(NC3CCNCC3)c12 [Example 104, 4-(4-Fluoro-5-isoquinolyl)aminopiperidine hydrochloride] | – | – | inhibition in vivo at 1 %, 50 µL [2]: 18.8%
did not inhibit MLCK | C=Cc1cncc2cccc(NC3CCNCC3)c12.Cl [Example 112, 4-(4-Vinyl-5-isoquinolyl)aminopiperidine hydrochloride] | significant vasoconstriction inhibitory action | – | inhibition in vivo at 1 %, 50 µL [2]: 25%
did not inhibit MLCK | Cl.c1cc(OC2CCNCC2)c2ccncc2c1 [Example 27, 4-[(5-Isoquinolyl)oxy]piperidine hydrochloride] | – | – | inhibition in vivo at 1 %, 50 µL [2]: 12.5%
– | CCc1cncc2cccc(NC3CCNCC3)c12.Cl [Example 113, 4-(4-Ethyl-5-isoquinolyl)aminopiperidine hydrochloride] | significant vasoconstriction inhibitory action | significant intraocular pressure reducing activity | –
did not inhibit MLCK | Cl.NCCCN(CCCc1cccc(C(=O)O)c1)S(=O)(=O)c1cccc2cnccc12 [Example 128, N-[(5-Isoquinolyl)sulfonyl]-N-[3-(3-carboxy)phenylpropyl]-1,3-propylenediamine hydrochloride] | – | – | –
– | CSc1cncc2cccc(NC3CCNCC3)c12.Cl [Example 105, 4-(4-Methylthio-5-isoquinolyl)aminopiperidine hydrochloride] | significant vasoconstriction inhibitory action | – | inhibition in vivo at 1 %, 50 µL [2]: 18.8%
– | Cl.NC1CCC(Nc2cccc3cncc(Br)c23)CC1 (stereo not drawn) [Example 107, N-(4-Bromo-5-isoquinolyl)-1,4-cyclohexanediamine hydrochloride] | – | significant intraocular pressure reducing activity | –
did not inhibit MLCK | Cl.Nc1nccc2c(O[C@H]3CC[C@@H](N)CC3)cccc12 [Example 141, Cis-4-[(1-amino-5-isoquinolyl)oxy]cyclohexylamine hydrochloride] | – | – | –
– | Cl.Oc1nccc2c(NC3CCNCC3)cccc12 [Example 115, 4-(1-Hydroxy-5-isoquinolyl)aminopiperidine hydrochloride] | – | significant intraocular pressure reducing activity | –
– | Cc1cncc2cccc(OC3CCNCC3)c12.Cl [Example 139, 4-[(4-Methyl-5-isoquinolyl)oxy]piperidine hydrochloride] | significant vasoconstriction inhibitory action | significant intraocular pressure reducing activity | –
did not inhibit MLCK | Cc1cncc2cccc(N[C@H]3CC[C@@H](N)CC3)c12.Cl [Example 120, Cis-N-(4-methyl-5-isoquinolyl)-1,4-cyclohexanediamine hydrochloride] | significant vasoconstriction inhibitory action | significant intraocular pressure reducing activity | –
– | Cl.NCCCN(CCCc1ccccc1)S(=O)(=O)c1cccc2c(N)nccc12 [Example 8, N-[(1-Amino-5-isoquinolyl)sulfonyl]-N-(3-phenylpropyl)-1,3-propylenediamine hydrochloride] | significant vasoconstriction inhibitory action | – | IC50 [1]: > 50 µM
– | Cl.N#Cc1cncc2cccc(O[C@H]3CC[C@H](N)CC3)c12 [Example 134, Trans-4-[(4-cyano-5-isoquinolyl)oxy]cyclohexylamine hydrochloride] | significant vasoconstriction inhibitory action | significant intraocular pressure reducing activity | –
– | Cl.N[C@H]1CC[C@H](Oc2cccc3cnccc23)CC1 [Example 135, Trans-4-[(5-isoquinolyl)oxy]cyclohexylamine hydrochloride] | – | significant intraocular pressure reducing activity | –
did not inhibit MLCK | COC(=O)c1ccc(CCCN(CCCN)S(=O)(=O)c2cccc3cnccc23)cc1.Cl [Example 130, N-[(5-Isoquinolyl)sulfonyl]-N-[3-(4-methoxycarbonyl)phenylpropyl]-1,3-propylenediamine hydrochloride] | – | – | –
– | C=Cc1cncc2cccc(O[C@H]3CC[C@H](N)CC3)c12.Cl [Example 136, Trans-4-[(4-vinyl-5-isoquinolyl)oxy]cyclohexylamine hydrochloride] | significant vasoconstriction inhibitory action | significant intraocular pressure reducing activity | –
– | NCCCN(CCCc1ccccc1)S(=O)(=O)c1cccc2cnccc12 [Example 1, N-[(5-Isoquinolyl)sulfonyl]-N-(3-phenylpropyl)-1,3-propylenediamine hydrochloride] | – | – | IC50 [1]: > 50 µM
– | N[C@H]1CC[C@H](Nc2cccc3cnccc23)CC1 [Example 24, Trans-N-(5-isoquinolyl)-1,4-cyclohexanediamine hydrochloride] | – | – | inhibition in vivo at 1 %, 50 µL [2]: 35.7%
– | Cc1cncc2cccc(S(=O)(=O)N(CCCN)CCCc3ccccc3)c12.Cl [Example 5, N-[(4-Methyl-5-isoquinolyl)sulfonyl]-N-(3-phenylpropyl)-1,3-propylenediamine hydrochloride] | significant vasoconstriction inhibitory action | – | –
– | Cl.OCCCN1CCC(Nc2cccc3cnccc23)CC1 [Example 145, 1-(3-Hydroxypropyl)-4-(5-isoquinolyl)aminopiperidine hydrochloride] | – | significant intraocular pressure reducing activity | –
– | Cl.NCCCN(CCS(=O)(=O)c1ccccc1)S(=O)(=O)c1cccc2c(O)nccc12 [Example 13, N-[(1-Hydroxy-5-isoquinolyl)sulfonyl]-N-[2-(phenylsulfonyl)ethyl]-1,3-propylenediamine hydrochloride] | significant vasoconstriction inhibitory action | – | –
